Measurements as given in patent US8460900B2, “Methods to degrade sludge from pulp and paper manufacturing” (Buckman Laboratories International, Inc., priority 2010, dated 2013).

System: CELLIC® CTec enzyme
Experiment: Cellulase activity of enzyme-surfactant solutions, carboxymethyl cellulose as substrate
Assay type: biochemical
Details: Table 3: 5 wt % surfactant + 10 wt % CELLIC CTec; for % Activity Increase: versus enzyme without surfactant; for Cellulase Activity (u/g): CMC substrate
Method: The experiments were set up for evaluating the effects of surfactants on enzymatic activity of CELLIC® CTec enzyme. The enzyme, surfactant, and water were mixed to form a solution containing 5 wt % surfactant and 10 wt % enzyme. For example, 1.0 g of CELLIC® CTec, 0.5 g of PLURONIC F108, and 8.5 g of deionized water were mixed to produce a solution containing 10 wt % enzyme and 5 wt % surfactant. The resulted enzyme-surfactant solutions were tested for cellulase activity. Carboxymethyl cellulose was used as the assay substrate. A control solution containing 10 wt % enzyme without surfactant was included for comparison.
Five PLURONIC surfactants with different HLB values are evaluated for their effects on the enzymatic activity of CELLIC® CTec in water solution. Each surfactant was mixed with the enzyme in water. The resulting solution was then assayed for cellulase activity using carboxymethyl cellulose (CMC) as the substrate. […] F108 enhanced the enzymatic activity by 22.3%.

| Substance | % Activity Increase | Cellulase Activity (u/g) |
| --- | --- | --- |
| Cocobis(2-hydroxyethyl)methyl ammonium chloride | 6.9% | 351.6 u/g |
| Sorbitan mono-oleate [Sorbitan mono-oleate, non-ionic] | −2.3% | 321.5 u/g |
| Sorbitan mono-oleate ester [Sorbitan mono-oleate ester, non-ionic] | 7.3% | 353.1 u/g |
